Source: ChEMBL document CHEMBL2417452, “Psammaplysin F: a unique inhibitor of bacterial chromosomal partitioning” (Bioorg Med Chem Lett, 2013)

Experiments:
Staphylococcus aureus [1] = test: Disruption of plasma membrane integrity in Staphylococcus aureus 1H assessed as extracellular ATP release at 20 uM after 15 to 120 mins by BacTiter-Glo microbial assay relative to control; type: functional
Staphylococcus aureus [2] = test: Antibacterial activity against methicillin-resistant Staphylococcus aureus USA-300 assessed as growth inhibition at 50 uM after 5 hrs by BacTiter-Glo microbial assay relative to control; type: functional
Staphylococcus aureus [3] = test: Antibacterial activity against methicillin-resistant Staphylococcus aureus MW2 assessed as growth inhibition at 50 uM after 5 hrs by BacTiter-Glo microbial assay relative to control; type: functional
Staphylococcus aureus [4] = test: Antibacterial activity against methicillin-resistant Staphylococcus aureus USA-300 after 20 to 24 hrs by two-fold broth microdilution method; type: functional, organism-based
Bacillus cereus [5] = test: Antibacterial activity against Bacillus cereus NCTC 7464 after 20 to 24 hrs by two-fold broth microdilution method; type: functional, organism-based
Staphylococcus aureus [6] = test: Antibacterial activity against methicillin-resistant Staphylococcus aureus MW2 after 20 to 24 hrs by two-fold broth microdilution method; type: functional, organism-based
Enterococcus faecalis [7] = test: Antibacterial activity against Enterococcus faecalis NCTC 775 after 20 to 24 hrs by two-fold broth microdilution method; type: functional, organism-based
Staphylococcus aureus [8] = test: Antibacterial activity against Staphylococcus aureus 1H after 20 to 24 hrs by two-fold broth microdilution method; type: functional, organism-based
Staphylococcus aureus [9] = test: Antibacterial activity against Staphylococcus aureus NCTC 6571 after 20 to 24 hrs by two-fold broth microdilution method; type: functional, organism-based
Salmonella typhimurium = test: Antibacterial activity against Salmonella typhimurium assessed as growth inhibition at 50 uM after 5 hrs by BacTiter-Glo microbial assay relative to control; type: functional; conditions: Salmonella enterica subsp. enterica serovar Typhimurium
Pseudomonas aeruginosa = test: Antibacterial activity against Pseudomonas aeruginosa PAO1 assessed as growth inhibition at 50 uM after 5 hrs by BacTiter-Glo microbial assay relative to control; type: functional
Klebsiella pneumoniae = test: Antibacterial activity against Klebsiella pneumoniae NCIB 8805 assessed as growth inhibition at 50 uM after 5 hrs by BacTiter-Glo microbial assay relative to control; type: functional
Escherichia coli = test: Antibacterial activity against Escherichia coli assessed as growth inhibition at 50 uM after 5 hrs by BacTiter-Glo microbial assay relative to control; type: functional
Bacillus cereus [10] = test: Antibacterial activity against Bacillus cereus NCTC 7464 assessed as growth inhibition at 50 uM after 5 hrs by BacTiter-Glo microbial assay relative to control; type: functional
Enterococcus faecalis [11] = test: Antibacterial activity against Enterococcus faecalis NCTC 775 assessed as growth inhibition at 50 uM after 5 hrs by BacTiter-Glo microbial assay relative to control; type: functional
Staphylococcus aureus [12] = test: Antibacterial activity against penicillin-resistant Staphylococcus aureus 1H assessed as growth inhibition at 50 uM after 5 hrs by BacTiter-Glo microbial assay relative to control; type: functional
Staphylococcus aureus [13] = test: Antibacterial activity against Staphylococcus aureus NCTC 6571 assessed as growth inhibition at 50 uM after 5 hrs by BacTiter-Glo microbial assay relative to control; type: functional

COC1=C(Br)C[C@]2(OC=C1Br)ON=C(C(=O)NCCCOc1c(Br)cc(CC[N+](C)(C)C)cc1Br)[C@@H]2O.O=C([O-])C(F)(F)F
fold change (FC) (Staphylococcus aureus [1]): 2

GENTAMICIN
growth inhibition (GI) (Staphylococcus aureus [2]): 90%
growth inhibition (GI) (Staphylococcus aureus [3]): 93%
MIC (Staphylococcus aureus [4]): 3.1 µM
MIC (Bacillus cereus [5]): 1.6 µM
MIC (Staphylococcus aureus [6]): 1.6 µM
MIC (Enterococcus faecalis [7]): 25 µM
MIC (Staphylococcus aureus [8]): 1.6 µM
MIC (Staphylococcus aureus [9]): 0.8 µM
growth inhibition (GI) (Salmonella typhimurium): 82%
growth inhibition (GI) (Pseudomonas aeruginosa): 86%
growth inhibition (GI) (Klebsiella pneumoniae): 83%
growth inhibition (GI) (Escherichia coli): 87%
growth inhibition (GI) (Bacillus cereus [10]): 82%
growth inhibition (GI) (Enterococcus faecalis [11]): 77%
growth inhibition (GI) (Staphylococcus aureus [12]): 89%
growth inhibition (GI) (Staphylococcus aureus [13]): 95%
